According to patent US20210207086A1, “NE[…], INTERNAL AGENT, CULTURE MEDIUM ADDITIVE, CELL DILUENT ADDITIVE, CULTURE MEDIUM, AND CELL DILUENT” (LAIMU CORPORATION, priority 2018, published 2021):

Tests used:
Type in all cases: cell-based, rat
PC12 cells [1] = experiment: Bt2cAMP-induced neurite formation-promoting effect in PC12 cells; conditions: 0.5 mM Bt2cAMP; for neurite formation ratio / neurite formation-promoting effect: compound 0.05-5 μM, FIGS. 1 and 2; for neurite formation-promoting effect compared between compounds: comparison with β-sitosterol or campesterol
Description: Using rat adrenal medullary pheochromocytoma-derived PC12 cells (obtained from RIKEN BRC) as a neurodifferentiative model, β-sitosterol, stigmasterol and campesterol were evaluated in terms of the Bt2cAMP (dibutyryladenosine 3′,5′-cyclic monophosphate)-induced neurite formation-promoting effect thereof.
First, PC12 cells were floated on an RPMI-1640 medium (from Sigma Aldrich Corporation) containing 10% equine serum (inactivated), 5% bovine fetal serum (inactivated), 100 U/mL of penicillin G and 100 μg/mL of streptomycin, and well suspended therein so as to be single cells. The suspension of PC 12 cells were sowed on a collagen-coated 96-well plate in an amount of […] cells/90 μL/well, and incubated in a 5% CO2 vapor phase at 37° C. for 24 hours. After incubation, a Dulbecco PBS(−) (Dulbecco phosphate buffer physiological saline water not containing Ca and Mg) added with Bt2cAMP at a concentration of 10 mM, RPMI-1640 medium added with β-sitosterol at a different concentration, or RPMI-1640 medium not added with β-sitosterol was added to the culture medium in each well in an amount of 5 μL each, and further incubated for 24 hours. At that time, the final concentration of each reagent added to the medium in each well was 0.5 mM with no exception for Bt2cAMP, and was 0 μM, 0.05 μM, 0.1 μM, 0.5 μM, 1 μM or 5 μM for β-sitosterol. After incubation, the culture medium was removed from each well, and 1% glutaraldehyde-containing phosphate buffer (0.1 M, pH 7.2) was dispensed in each well in an amount of 100 μL/well, and then left as such for 20 minutes to fix the cells. Subsequently, the glutaraldehyde-containing phosphate buffer was removed from each well, then a Giemsa stain fluid was dispensed in an amount of 100 μL/well, and left as such for 2 to 3 minutes for staining. After staining, the Giemsa stain fluid was removed from each well, and the stained sample in each well was washed twice with ultra-pure water, and then dried.
The number of the positive cells relative to the total number of cells (the total number of cells judged to be positive or negative) was calculated as percentage to be a neurite formation ratio. Here, for positive or negative judgement, 300 to 400 cells/well were observed.
PC12 cells were incubated according to the same method as above except that stigmasterol or campesterol, or a comparative compound of cholesterol or progesterone was used in place of β-sitosterol, and the neurite formation ratio in each case was calculated.
Graphs were drawn by plotting the neurite formation ratio relative to the concentration of β-sitosterol, campesterol or cholesterol added to the culture medium of PC 12 cells, and shown in FIG. 1. Graphs were drawn by plotting the neurite formation ratio relative to the concentration of β-sitosterol, stigmasterol or progesterone added to the culture medium of PC 12 cells, and shown in FIG. 2. In FIGS. 1 and 2, the horizontal axis is a logarithmic scale. The neurite formation ratio is shown as SD, and SD is a standard deviation in the three tests carried out in the same manner. “*” indicates p<0.05, and “**” indicates p<0.01. The same shall apply to the expression of the neurite formation ratio in FIG. 3, as measured in the following experiment (b).

PC12 cells [2] = experiment: NGF-induced neurite formation-promoting effect in PC12 cells; conditions: 10 ng/mL NGF, β-sitosterol 0.05-5 μM, 48 hours; FIG. 3
Description: Here, NGF (nerve growth factor) differing from Bt2cAMP in point of signaling pathways was used as an inducing agent for neurite formation to evaluate the NGF-induced neurite formation-promoting effect of β-sitosterol.
Specifically, PC12 cells were incubated according to the same method as above except that an NGF-added Dulbecco PBS(−) was used in place of the Bt2cAMP-added Dulbecco PBS(−) and the incubation time for the PC12 cells after addition of NGF and β-sitosterol thereto was 48 hours, and the neurite formation ratio was calculated. The final concentration of each reagent added to the culture medium of PC12 cells in each well was 10 ng/mL with no exception for NGF, and was 0 μM, 0.05 μM, 0.1 μM, 0.5 μM, 1 μM or 5 μM for β-sitosterol. A graph was drawn by plotting the neurite formation ratio relative to the concentration of β-sitosterol added to the culture medium of PC 12 cells, and shown in FIG. 3.

PC12 cells [3] = experiment: Cell toxicity test (Calcein-AM, number of living PC12 cells); conditions: 0.5 mM Bt2cAMP, β-sitosterol 0.05-5 μM, 24 hours; FIG. 4
Description: For confirming that the neurite formation-promoting effect of each compound recognized in the above-mentioned evaluations (a) and (b) is not caused by stress (cell toxicity) given to cells, the number of living PC12 cells incubated in a culture medium added with Bt2cAMP and β-sitosterol was evaluated using Calcein-AM (from Dojindo Molecular Technologies, Inc.). Calcein-AM is a cell membrane-permeable compound, and when taken in living cells, it is hydrolyzed with esterase to release calcein. […] Accordingly, after a group of cells were processed with Calcein-AM so as to make Calcein-AM taken by the living cells, and then the cells were disrupted to measure the fluorescence intensity by calcein, whereby the number of the living cells in the group of cells can be known. […]
The fluorescence intensity of the sample in each well processed as above was measured at an excitation wavelength of 485 nm and a detection wavelength of 527 nm. The data of the measured fluorescence intensity were plotted relative to the concentration of β-sitosterol added to the culture medium of PC12 cells, and the resultant graph is shown in FIG. 4. […] The fluorescence intensity is a relative value based on the actual value of the fluorescence intensity, 100%, measured in the system not added with β-sitosterol, and is shown as ±DS. […]

PC12 cells [4] = experiment: NGF-inductive neural differentiation-promoting effect (neurofilament immunofluorescent staining); conditions: 10 ng/mL NGF, 0.5 μM β-sitosterol, 48 hours; FIG. 5
Description: A neurofilament was used as a neural differentiation marker. This was stained according to an immunofluorescent staining method for evaluating the neural differentiation promoting effect of β-sitosterol.
PC12 cells were floated in an RPMI-1640 medium containing 10% equine serum (inactivated), 5% bovine fetal serum (inactivated), 100 U/mL of penicillin G and 100 μg/mL of streptomycin and well suspended therein to be single cells of 1.4×10^4 cells/mL. The suspension of PC12 cells was sown in a collagen-coated 8-well chamber slide at 5.0×10^3 cells/360 μL/well, and incubated in a 5% CO2 vapor phase at 37° C. for 24 hours. After incubation, an NGF-added Dulbecco PBS(−) (NGF solution), and a β-sitosterol-added RPMI-1640 medium (β-sitosterol solution) were added to the medium in each well in an amount 20 μL/well each, and further incubated for 48 hours. At that time, the final concentration of each reagent added to the medium in each well was 10 ng/mL for NGF, and was 0.5 μM for β-sitosterol. After incubation, the medium was removed from each well, which was then washed with PBS(−) (phosphate buffer physiological saline water (not containing Ca and Mg)), processed with a 4% formaldehyde solution dispensed in each well for 30 minutes, and thereafter washed three times with PBS(−) for 3 minutes. […]

Structure (SMILES)	neurite formation ratio / neurite formation-promoting effect (PC12 cells [1]; 24 hours)	neurite formation-promoting effect compared between compounds (PC12 cells [1])	also measured
CC(C)CCC[C@@H](C)[C@H]1CC[C@H]2[C@@H]3CC=C4C[C@@H](O)CC[C@]4(C)[C@H]3CC[C@]12C [cholesterol, reference compound]	not recognized to have a neurite formation-promoting effect	–	–
CC[C@H](/C=C/[C@@H](C)C1CCC2C3CC=C4C[C@@H](O)CC[C@]4(C)C3CC[C@@]21C)C(C)C (stereo partly drawn) [stigmasterol]	significantly increased	no difference in the neurite formation-promoting effect	–
CC[C@H](CC[C@@H](C)C1CCC2C3CC=C4C[C@@H](O)CC[C@]4(C)C3CC[C@@]21C)C(C)C (stereo partly drawn) [β-sitosterol]	significantly increased	stronger neurite formation-promoting effect than the system added with campesterol	neurite formation ratio (PC12 cells [2]): significantly increased; fluorescence intensity (calcein), relative to system not added with β-sitosterol (PC12 cells [3]): changed little; number of living cells (PC12 cells [3]): does not decrease; neurofilaments (bright spots in FITC fluorescently-stained image) versus NGF alone (PC12 cells [4]): larger number of neurofilaments appeared
CC(=O)[C@H]1CC[C@H]2[C@@H]3CCC4=CC(=O)CC[C@]4(C)[C@H]3CC[C@]12C [Progesterone, progesterone, reference compound]	extremely weak	–	neurite formation ratio (PC12 cells [1]; compound added in an amount of 0.1 μM, 24 hours, FIG. 2): recognized to increase the neurite formation ratio
CC(C)[C@H](C)CC[C@@H](C)[C@H]1CC[C@H]2[C@@H]3CC=C4C[C@@H](O)CC[C@]4(C)[C@H]3CC[C@]12C [campesterol]	significantly increased	–	–
